Assay [1] relates to Mao-B. Kind of assay: Mao-B protein levels by Western blot in differentiated SH-SY5Y cells. To be noted: for Densitometric quantification Exp. 1 / Densitometric quantification Exp. 2 / Densitometric quantification Exp. 3: Mao-B Western blot band signal, Aza 625 nM, SAM 25 μM, Vit B6 5 μg/ml, Vit B12 7.5 μg/ml; for Densitometric quantification Exp. 1 / Densitometric quantification Exp. 2 / Densitometric quantification Exp. 3 / % MAO-B of untreated cells Exp. 1 / % MAO-B of untreated cells Exp. 2 / % MAO-B of untreated cells Exp. 3: differentiated SH-SY5Y cells treated Days 8 to 12; for % MAO-B of untreated cells Exp. 1 / % MAO-B of untreated cells Exp. 2 / % MAO-B of untreated cells Exp. 3: untreated set 100%; for % MAO-B of untreated cells Average: differentiated SH-SY5Y cells, average of the experiments. Type of assay: cell-based. On the procedure:
The neuroblastoma cell line SH-SY5Y was seeded at 110,000 cell/6-well. Neuronal differentiation treatment was started on the next day (=Day 0) by addition of 10 μM retinoic acid every second day until Day 6. On Day 8 differentiation treatment was switched to 4 μM uridine (Ur), 5 μM 5-fluoro-2′-deoxyuridine FdUr), and 1 μM cytosine beta-D-arabinofuranoside (araC). During mitotic inhibitor addition (=Days 8 to 12) cells were left untreated or treated with 625 nM 5-aza-2′-deoxycytidine (Aza), 25 μM S-adenosylmethionine (SAM), 5 μg/ml vitamin B6 (Vit B6), 7.5 μg/ml vitamin B12 (Vit B12), or 5 μg/ml vitamin B6/7.5 μg/ml vitamin B12. On Day 12 cells were harvested. Cells were washed twice with chilled PBS, scraped off in PBS/protease inhibitors, and centrifuged at 15000×g at 4 C for 10 min. The pellet was reconstituted in 150 μl PBS/protease inhibitors and precipitated with 50 μl trichloroacetic acid/80 mMDTT for 1 hour at 4 C. After centrifugation at 15000×g at 4 C for 10 min, precipitated protein was washed four times with 0.6 ml acetone/20 mM DTT and stored at −80 C until analysis. The dried total protein pellet was reconstituted in 7M urea/2M thiourea/4% CHAPS buffer and the protein concentration was determined using the Coomassie Plus (Bradford) Protein Assay (Pierce, Thermo Scientific). Equal protein amounts were loaded onto an 11% SDS polyacrylamide gel and proteins were blotted onto nitrocellulose. Mao-B was detected using a polyclonal Goat anti-Mao-B antibody (sc18401, Santa Cruz) and DyLight 649 AffiniPureF(ab′)2 Fragment Donkey Anti-Goat IgGgamma (Jackson ImmunoResearch Laboratories, Inc.), and a Typhoon scanner (GE Healthcare Life Sciences). Results were analysed with the software ImageJ. The signals of the Mao-B bands of SAM treated and untreated differentiated SH-SY5Y cells were compared and the latter was set 100%.
(In western blotting, separated proteins are transferred to a membrane and probed.)

A further assay has as its system platelet MAO activity. To be noted: LOAD patients, vitamin B12 therapy; cited from earlier work.
Assay [2] deals with Mao-B. Kind of assay: MAO-B protein expression by Western blot in HepG2 cells, normalised against GAPDH and 14-3-3 gamma. To be noted: 10 μM 5-aza-2-deoxycytidine for 1, 2, or 3 days; FIG. 3. Type of assay: cell-based. The procedure: HepG2 cells were grown in DMEM low glucose/10% FBS and were treated with 10 μM 5-aza-2-deoxycytidine for 1, 2, or 3 days. Untreated HepG2 cells served as controls. Cells were scraped in precipitation buffer (PBS/25% trichloroacetic acid/20 mM DTT/protease inhibitors) at 4 C and proteins were precipitated for 1 hour at 4 C. Precipitated proteins were pelleted at 15000 rpm for 10 min (4 C) and washed 4 times with 700 μl acetone/20 mM DTT. Before analysis by SDS PAGE and Western blot, the precipitated samples were reconstituted in DIGE buffer/1% pH 4-7 ampholyte. Six parallel experiments were performed. […] Two normalisation compounds were used: GAPDH (glyceraldehyde 3-phosphate dehydrogenase) and 14-3-3 gamma (protein kinase C inhibitor protein 1). Each Mao-B band signal was divided by the respective GAPDH or 14-3-3 gamma band signal to achieve normalisation.
HepG2 cells were grown in DMEM low glucose/2% FBS and were treated with vitamin B6 (300 μg/ml) and vitamin B12 (74.4 μg/ml) for 1, 3, 4, 5 and 7 days. Untreated HepG2 cells served as controls. Cells were harvested and analysed by Western blot.

Consider vitamin B12 [Vit B12], for which, in the assay with Mao-B [1], the “Densitometric quantification Exp. 1” value is listed as 3823.5, the “Densitometric quantification Exp. 2” value is listed as 857.8, the “Densitometric quantification Exp. 3” value stood at 695.3 and the “% MAO-B of untreated cells Exp. 1” value was 93%. Further, in the assay with Mao-B [1], the “% MAO-B of untreated cells Exp. 2” value came out at 77%, the “% MAO-B of untreated cells Exp. 3” value is 62% and the “% MAO-B of untreated cells Average” value turned out to be 77%. In addition, the “platelet MAO activity” value in the assay with platelet MAO activity is recorded as “significantly reduced”.
As to `Nc1ncn([C@H]2C[C@H](O)[C@@H](CO)O2)c(=O)n1` [Aza, 5-aza-2′-deoxycytidine], the “MAO-B protein expression in HepG2 cells” value in the assay on Mao-B [2] is “increased levels of MAO-B are expressed”. Also, in the assay with Mao-B [1], the “Densitometric quantification Exp. 2” value came out at 1116.9, the “Densitometric quantification Exp. 3” value is 973.5, the “% MAO-B of untreated cells Exp. 2” value worked out at 100% and the “% MAO-B of untreated cells Exp. 3” value was 87%. In addition, the “% MAO-B of untreated cells Average” value in the assay with Mao-B [1] is given as 94%.
`C[S+](CC[C@H](N)C(=O)O)C[C@H]1O[C@@H](n2cnc3c(N)ncnc32)[C@H](O)[C@@H]1O` (stereo partly shown) [SAM, S-adenosylmethionine]: in the assay with Mao-B [1], the “Densitometric quantification Exp. 1” value was found to be 2482.6, the “Densitometric quantification Exp. 2” value came out at 990.4, the “Densitometric quantification Exp. 3” value is given as 1006.8 and the “% MAO-B of untreated cells Exp. 1” value was 60%. In the assay on Mao-B [1], the “% MAO-B of untreated cells Exp. 2” value came to 89%, the “% MAO-B of untreated cells Exp. 3” value came out at 90% and the “% MAO-B of untreated cells Average” value was 80%.
Take vitamin B6 [Vit B6]: in the assay on Mao-B [1], the “Densitometric quantification Exp. 1” value was determined as 4087.1, the “Densitometric quantification Exp. 2” value is given as 1008.1, the “Densitometric quantification Exp. 3” value came out at 1004.8 and the “% MAO-B of untreated cells Exp. 1” value is given as 99%. Besides, in the assay on Mao-B [1], the “% MAO-B of untreated cells Exp. 2” value stood at 90%, the “% MAO-B of untreated cells Exp. 3” value is 90% and the “% MAO-B of untreated cells Average” value amounted to 93%.

These data come from patent US20140336141A1, “MAO-B INHIBITORS DERIVED FROM THE ONE-CARBON CYCLE” (RANDOX LABORATORIES LTD., priority 2011, published 2014).
